Experimental data reported in patent US10322110B2, “Imidazole-based antimicrobial agents” (priority 2014, dated 2019).
In brackets after ≈: the same amount, converted by molar mass. Read-outs that look alike come from different tables or passages of the source.

What was measured:
Type in all cases: cell-based
[1] = system: Staphylococcus aureus MSSA (Newman); experiment: broth microdilution MIC assay, Staphylococcus aureus MSSA (Newman); settings: for MIC: Staphylococcus aureus; for Antibacterial activity Staphylococcus aureus (MSSA): MIC100 class score, broth microdilution
[2] = system: penicillin-, erythromycin- and tetracycline-resistant Streptococcus pneumoniae (ATCC 700677), ARSP; experiment: microbe, parasite or virus in culture
[3] = system: Bacillus subtilis (Marburg strain, ATCC6051); experiment: microbe, parasite or virus in culture; settings: ATCC6051, read-out: Antibacterial activity BS (Bacillus substilis)
[4] = system: Human hepatocytes (HepaRG cells); experiment: human cytotoxicity assay in vitro (CellTiter-Glo), hepatocytes; settings: cytotoxicity class
[5] = system: Staphylococcus epidermidis (PCI 1200, ATCC12228); experiment: broth microdilution MIC assay, Staphylococcus epidermidis; settings: ATCC12228, read-out: Antibacterial activity SE (Staphylococcus epidermidis)
[6] = system: Staphylococcus aureus MRSA (COL); experiment: broth microdilution MIC assay, Staphylococcus aureus MRSA (COL); settings: for MIC: Staphylococcus aureus, MRSA; for Antibacterial activity Staphylococcus aureus (MRSA): MIC100 class score, broth microdilution
[7] = system: Streptococcus pneumoniae (Chester, ATCC49619); experiment: broth microdilution MIC assay, Streptococcus pneumoniae; settings: MIC100 class score, 24 h
[8] = 24 h, read-out: Antibacterial activity Staphylococcus aureus (MSSA)
[9] = read-out: Antibacterial activity MSSA (Staphylococcus aureus MSSA)
[10] = ATCC700677, MIC activity class, read-out: Antibacterial activity ARSP (multi-drug resistant-SP)
[11] = 24 h, read-out: Antibacterial activity Staphylococcus aureus (MRSA)
[12] = read-out: Antibacterial activity MRSA (Staphylococcus aureus MRSA)

SMILES	MIC [1, 8] [µg/mL]	MIC [1, 9] [µg/mL]	MIC [2, 10] [µg/mL]	MIC [3] [µg/mL]	cytotoxicity cell line H (hepatocytes) [4]	MIC [5] [µg/mL]	MIC [6, 11] [µg/mL]	MIC [6, 12] [µg/mL]	Antibacterial activity Streptococcus pneumoniae [7]	MIC ([2]; ATCC700677, read-out: Antibacterial activity ARSP (multi-drug resistant-SP)) [µg/mL]	Antibacterial activity Staphylococcus aureus (MSSA) ([1]; 24 h)	Antibacterial activity Staphylococcus aureus (MRSA) ([6]; 24 h)
Cc1[nH]c(-c2ccc(-c3cccc(Cl)c3Cl)o2)nc1-c1ccccc1 [Compound 2]	20 to 50 (≈ 54.2 to 135 µM)	20 to 50 (≈ 54.2 to 135 µM)	2 to 5 (≈ 5.42 to 13.5 µM)	20 to 50 (≈ 54.2 to 135 µM)	2							
Cc1[nH]c(-c2ccc(-c3ccccc3Cl)o2)nc1-c1ccccc1 [Compound 3]	3 to 10 (≈ 8.96 to 29.9 µM)	3 to 10 (≈ 8.96 to 29.9 µM)			3	11 to 201 (≈ 32.9 to 600 µM)	11 to 201 (≈ 32.9 to 600 µM)	11 to 201 (≈ 32.9 to 600 µM)				
Cc1nc(-c2ccc(-c3cccc(Cl)c3)o2)[nH]c1-c1ccccc1 [Compound 4]	1 to 3 (≈ 2.99 to 8.96 µM)	1 to 3 (≈ 2.99 to 8.96 µM)				3 to 10 (≈ 8.96 to 29.9 µM)	11 to 201 (≈ 32.9 to 600 µM)	11 to 201 (≈ 32.9 to 600 µM)				
Cc1nc(-c2ccc(-c3ccc(Cl)cc3)o2)[nH]c1-c1ccccc1 [Compound 5]	1 to 3 (≈ 2.99 to 8.96 µM)	1 to 3 (≈ 2.99 to 8.96 µM)			2	3 to 10 (≈ 8.96 to 29.9 µM)	3 to 10 (≈ 8.96 to 29.9 µM)	3 to 10 (≈ 8.96 to 29.9 µM)				
Cc1[nH]c(-c2cc(C)n(-c3ccc(Cl)cc3)c2C)nc1-c1ccccc1 [Compound 8]					2			20 to 50 (≈ 55.3 to 138 µM)	3 (MIC100 of 2-5 μg/ml)			
Cc1[nH]c(-c2cc(C)n(-c3ccc(F)cc3F)c2C)nc1-c1ccccc1 [Compound 9]					3			20 to 50 (≈ 55 to 138 µM)	2 (MIC100 of 6-10 μg/ml)			
Cc1[nH]c(-c2cc(C)n(-c3ccc(F)c(F)c3F)c2C)nc1-c1ccccc1 [Compound 10]					3				2 (MIC100 of 6-10 μg/ml)			
Cc1[nH]c(-c2ccc(-c3ccccc3C(F)(F)F)o2)nc1-c1ccccc1 [Compound 17]	3 to 10 (≈ 8.14 to 27.1 µM)	3 to 10 (≈ 8.14 to 27.1 µM)		1 to 3 (≈ 2.71 to 8.14 µM)	3	20 to 50 (≈ 54.3 to 136 µM)	1 to 3 (≈ 2.71 to 8.14 µM)	1 to 3 (≈ 2.71 to 8.14 µM)				
Cc1nc(-c2ccc(-c3ccccc3C(F)(F)F)o2)[nH]c1-c1ccccc1Cl [Compound 20]		20 to 50 (≈ 49.7 to 124 µM)	2 to 5 (≈ 4.97 to 12.4 µM)	20 to 50 (≈ 49.7 to 124 µM)	3							
Cc1[nH]c(-c2ccc(-c3ccccc3C(F)(F)F)o2)nc1-c1ccc(Br)cc1 [Compound 25]				20 to 50 (≈ 44.7 to 112 µM)					3 (MIC100 of 2-5 μg/ml)			
Cc1[nH]c(-c2ccc(-c3ccccc3OC(F)(F)F)o2)nc1-c1ccc(C(F)(F)F)cc1 [Compound 26]									3 (MIC100 of 2-5 μg/ml)	6 to 10 (≈ 13.3 to 22.1 µM)		
CCc1ccc(-c2[nH]c(-c3ccc(-c4ccccc4C(F)(F)F)o3)nc2C)cc1 [Compound 28]		20 to 50 (≈ 50.5 to 126 µM)		1 to 3 (≈ 2.52 to 7.57 µM)				20 to 50 (≈ 50.5 to 126 µM)	3 (MIC100 of 2-5 μg/ml)			
Cc1nc(-c2ccc(-c3ccccc3OC(F)(F)F)o2)[nH]c1-c1ccc(Br)cc1 [Compound 29]		3 to 10 (≈ 6.48 to 21.6 µM)						11 to 201 (≈ 23.7 to 434 µM)	3 (MIC100 of 2-5 μg/ml)		3 (MIC100 of 3-10 μg/ml)	2 (MIC100 of 11-201 μg/ml)
COc1ccc(-c2ccc(-c3nc(C)c(-c4ccccc4)[nH]3)o2)c(C(F)(F)F)c1 [Compound 31]	3 to 10 (≈ 7.53 to 25.1 µM)	3 to 10 (≈ 7.53 to 25.1 µM)			3		3 to 10 (≈ 7.53 to 25.1 µM)	3 to 10 (≈ 7.53 to 25.1 µM)				
Cc1nc(-c2ccc(-c3cc(F)ccc3C(F)(F)F)o2)[nH]c1-c1ccccc1 [Compound 31a]	20 to 50 (≈ 51.8 to 129 µM)	20 to 50 (≈ 51.8 to 129 µM)	2 to 5 (≈ 5.18 to 12.9 µM)	20 to 50 (≈ 51.8 to 129 µM)	2							
Cc1nc(-c2ccc(-c3ccc(Cl)cc3C(F)(F)F)o2)[nH]c1-c1ccccc1 [Compound 32]	1 to 3 (≈ 2.48 to 7.45 µM)	1 to 3 (≈ 2.48 to 7.45 µM)			2	3 to 10 (≈ 7.45 to 24.8 µM)	3 to 10 (≈ 7.45 to 24.8 µM)	3 to 10 (≈ 7.45 to 24.8 µM)				
Cc1[nH]c(-c2ccn(-c3ccccc3C(F)(F)F)c2)nc1-c1ccccc1 [Compound 33]		3 to 10 (≈ 8.17 to 27.2 µM)				11 to 201 (≈ 29.9 to 547 µM)		20 to 50 (≈ 54.4 to 136 µM)	2 (MIC100 of 6-10 μg/ml)		3 (MIC100 of 3-10 μg/ml)	
Cc1nc(-c2ccc(-c3cc(C(F)(F)F)cc(C(F)(F)F)c3)o2)[nH]c1-c1ccccc1 [Compound 35]	3 to 10 (≈ 6.88 to 22.9 µM)	3 to 10 (≈ 6.88 to 22.9 µM)	6 to 10 (≈ 13.8 to 22.9 µM)	3 to 10 (≈ 6.88 to 22.9 µM)		20 to 50 (≈ 45.8 to 115 µM)	20 to 50 (≈ 45.8 to 115 µM)	20 to 50 (≈ 45.8 to 115 µM)				
Cc1[nH]c(-c2cc(C)n(-c3cccc(C(F)(F)F)c3)c2C)nc1-c1ccccc1 [Compound 36]					3			11 to 201 (≈ 27.8 to 508 µM)	3 (MIC100 of 2-5 μg/ml)			2 (MIC100 of 11-201 μg/ml)
